In the assay the test system is Plasmodium falciparum. The assay can be described thus: GSK_TCMDC: Inhibition of Plasmodium falciparum 3D7 in whole erythrocytes, using parasite LDH activity as an index of growth. The format is functional, organism-based. To be noted: Plasmodium falciparum, 3D7.
`C=C1C(C(=O)OCC)=CN(CC)c2cc(O[C@H]3CCN(C(=O)OC(C)(C)C)C3)ccc21` came in with an XC50 of 548 nM. Next, `COCCn1c(C)cc(C(=O)CN2C(=O)NC(C)(c3ccc(C(C)(C)C)cc3)C2=O)c1C` (centres undefined): 475 nM. Next, `C[C@@H](CC1CCCCC1)NCc1ccccc1O`: 932 nM. Next, `Cc1ccc(NC(=O)c2ccnc(N3CCN(c4ccncc4)CC3)c2)cc1F`: 873 nM.

The compound `FC(F)(F)c1ccc2[nH]ccc(=NN=Cc3ccc(Cl)cc3)c2c1` yielded an XC50 of 791 nM.

Compound `COc1ccc(Cc2cccc(C(C(=O)NCc3cc(Cl)cc(Cl)c3)N3CCN(C)CC3)c2)cc1` (centres undefined) displayed an XC50 of 694 nM.

The compound `CCCCCCCN1CC[C@@H](CCCc2ccnc3ccc(OCCC4CCNCC4)cc23)[C@@H](CC)C1` came in with an XC50 of 610 nM. For `CC(C)[C@H]1CC[C@H](C)C[C@@H]1OC(=O)N[C@@H](Cc1ccc(O)cc1)C(=O)NC1CCN(Cc2ccc(OCCCN(C)C)cc2)C1` (some centres undefined), the XC50 turned out to be 764 nM. The figure for `COc1cccc(-c2ccc3c(-c4ccc(F)cc4)cnc(N)c3c2)c1` is 807 nM. Next, `O=C(NCc1cccc(F)c1)Nc1ccc(-c2ccc(-c3nc4cc(C(F)(F)F)ccc4[nH]3)cc2)cc1`: 769 nM; `Oc1ccccc1CNC1CCCCC1NCc1ccccc1O` (centres undefined): 950 nM; `COc1ccc2c(=NN=Cc3ccccc3F)cc(C)[nH]c2c1`: 997 nM. With `CC(C)CCNC(=O)c1cnc2c(O)cccc2c1Nc1cccc(NC(=O)c2ccc(F)cc2)c1`, the XC50 was determined as 913 nM.

Take `O=C(NCc1cccs1)[C@H](Cc1ccccc1)Nc1ccnc(NCC2CCCCC2)n1`: the XC50 was determined as 1050 nM. The compound `O=C(NCCCCCN1CCCN(C(=O)Nc2ccc(Cl)c(C(F)(F)F)c2)CC1)C1CC1c1ccc(Cl)c(Cl)c1` (centres undefined) gave an XC50 of 852 nM. Next, `O=C(CSc1nc(-c2ccccc2Cl)ns1)Nc1ccc2c(c1)OCO2`: 988 nM; `CN(CCCN(C)c1cc(NC(=O)c2ccc(F)cc2)ccn1)Cc1cccc(O)c1`: 1210 nM. With `CC(C)c1sc(N2CCN(C)CC2)nc1C(=O)Nc1ccc(F)cc1C(F)(F)F`, the XC50 was found to be 190 nM. In the case of `CC(C)N1CCN(C(=O)c2ccc(CNCCCN3CCN(c4cccc(Cl)c4Cl)CC3)s2)CC1`, the XC50 turned out to be 716 nM. The figure for `CC1(C)CN2CCCC2c2cc(NC(=O)/C=C/c3ccccc3Cl)ccc21` (centres undefined) is 991 nM; for `CS(=O)(=O)NCCCNCc1cccc(-c2ccc(-c3nc4cc(C(F)(F)F)ccc4[nH]3)cc2)c1` it is 996 nM; for `CN1CCN(CCCN(Cc2csc(-c3ccc(CNCc4ccccc4)cc3)n2)C(=O)Nc2cc(Cl)cc(Cl)c2)CC1` it is 700 nM. The figure for `CCCCNCc1ccc(OCc2cccc(COc3ccc(CNCCCC)cc3I)c2)c(I)c1` is 1120 nM. In the case of `O=c1c2ccc(Sc3ccccn3)cc2n(-c2ccccc2)c2cc(Sc3ccccn3)ccc12`, the XC50 turned out to be 203 nM. On to `CCOc1cc(C)ccc1C1CCN(CCCCNC(=O)c2coc(-c3ccc(Cl)cc3)c2)CC1`, for which the XC50 stood at 914 nM.

On to `COc1cc2ncnc(Nc3ccc(OCc4ccccc4)c(I)c3)c2cc1OC`, for which the XC50 came out at 712 nM. Next, `CCCCC(=O)Nc1nonc1-c1ccc(OCC)c(OCC)c1`: 912 nM. Turning to `CCCCNC(=O)[C@H](CC1CCCCC1)NC(=O)c1ccc(O)c(-c2cccc(C(F)(F)F)c2)c1`, the XC50 turned out to be 773 nM. The figure for `CCCNCc1ccc(-c2ccc(CN(CCOC)C(=O)COc3ccccc3Cl)cc2)nc1` is 912 nM; for `COc1cccc(-c2nn(C)c3sc(C(=O)NCCN(C)Cc4ccccc4)cc23)c1` it is 814 nM.

Turning to `O=C(CCOc1ccccc1)NCC1CCCO1` (centres undefined), the XC50 was found to be 1000 nM. With `COc1ccc(N2CCN(CCCCNC(=O)c3ccc(NC(=O)c4ccc(Cl)cc4)cc3)CC2)c(C)c1`, the XC50 was determined as 758 nM. In turn, `N#Cc1ccc(Sc2nnc(-c3ccccc3Cl)n2CC2CCCCC2)cc1[N+](=O)[O-]` showed an XC50 of 1160 nM. The figure for `COc1cc2nc(N3CCC(CNC(=O)c4cccc5cc[nH]c45)CC3)nc(N)c2cc1OC` is 1580 nM.

Consider `CCN(CC(C)O)C(=O)c1ccc(-c2cccc(-c3nc4cccc(C)c4[nH]3)c2)cc1` (centres undefined), for which the XC50 was 639 nM.

`Cc1cccc2nc(-c3cccc(-c4cccc(CNC(C)C)c4)c3)[nH]c12` showed an XC50 of 336 nM. In turn, `O=C(NCC1CC1)C1CCN(C(c2ccccc2)c2ccc(Cl)c(Cl)c2)CC1` (centres undefined) returned an XC50 of 369 nM. Next, `CN(C)CCN(Cc1ccc(-c2ccc(CNCCc3ccccc3)cc2)nc1)C(=O)CCC1CCCC1`: 799 nM. Regarding `CCN(CC)CCOc1ccc(C(O)(C#CC(O)(c2ccccc2)c2ccc(OCCN(CC)CC)cc2)c2ccccc2)cc1` (centres undefined), the XC50 came to 1310 nM. Next, `N#Cc1ccc2c(c1)CCN(CCC1CCC(NC(=O)/C=C/c3cccc4cc[nH]c34)CC1)CC2` (centres undefined): 1090 nM. Next, `CCc1cc(NC2CCN(C)CC2)nc(Nc2cccc(OC)c2)n1`: 856 nM; `FC(F)(F)c1ccc2[nH]c(-c3cccc(-c4ccc(CNCC5CCCO5)cc4)c3)nc2c1` (centres undefined): 277 nM; `CCCC(CNC(=O)c1cc2c(Cl)cc(Cl)cc2[nH]1)CNc1cc(=O)c2ccccc2[nH]1` (centres undefined): 903 nM. With `Clc1nc(Cl)c2c(ccn2Cc2ccccc2)n1`, the XC50 worked out at 787 nM. Next, `NC(=O)c1ccccc1OCC(=O)Nc1cccc(-c2ccc(-c3nc4cc(C(F)(F)F)ccc4[nH]3)cc2)c1`: 647 nM; `N#Cc1ccc(CN2CCC(Oc3ccc(NC(=O)c4ccco4)cc3Cl)CC2)cc1`: 379 nM; `O=C(/C=C/c1ccccc1F)NC1CCC(CCN2CCc3ccc(-c4cccnc4)cc3CC2)CC1` (centres undefined): 900 nM. The figure for `O=C(/C=C/c1ccc(Cl)c(Cl)c1)NCCCCCCN1CCCN(C(=O)Nc2ccc(C(F)(F)F)cc2)CC1` is 579 nM; for `O=C(Nc1ccc(Br)cc1)N(CCN1CCOCC1)CC(O)COCc1ccc(Cl)c(Cl)c1` (centres undefined) it is 929 nM; for `COC(=O)c1sc2ccccc2c1NC(=O)c1ccc(C)c(C)c1` it is 1070 nM. Next, `CC(C)CCNc1nc(NCc2ccccc2)c2cc(O)ccc2n1`: 105 nM; `FC(F)(F)c1ccc2[nH]c(-c3ccc(-c4cccc(CNCc5ccccc5)c4)s3)nc2c1`: 153 nM; `Fc1ccc(Nc2ccnc3cc(I)ccc23)c(Cl)c1`: 1080 nM.

Regarding `Cc1noc(C)c1-c1ccc2c(Nc3ccccc3C(C)(C)C)c(C(=O)NCc3ccc4c(c3)OCO4)cnc2c1`, the XC50 stood at 912 nM. `O=c1[nH]c2c(cc1CNC1CCCCC1)c(-c1ccc(F)cc1)nn2-c1ccccc1` gave an XC50 of 804 nM. Take `COC(=O)CNC(c1ccccc1)c1cc(Br)ccc1NC(=O)c1ccccc1Br` (centres undefined): the XC50 turned out to be 988 nM.

`Cc1ccccc1CNc1noc(-c2c(-c3ccccc3)noc2C)n1` yielded an XC50 of 902 nM. The figure for `CC(C)NCc1ccc(-c2ccc(-c3nc4cc(C(F)(F)F)ccc4[nH]3)cc2)cc1` is 266 nM; for `OC(CNCCCc1ccccc1)c1cc(OCc2ccccc2)cc(OCc2ccccc2)c1` (centres undefined) it is 851 nM; for `NC1CCCN(Cc2ccc(-c3ccc(-c4nc5cc(F)ccc5[nH]4)s3)cc2)C1` (centres undefined) it is 177 nM. Next, `COc1ccc(Br)cc1/C=C/C(=O)Nc1cccc(C2CCN(C)CC2)c1`: 523 nM; `Nc1nc(N)c2c(ccc3nn(S(=O)(=O)N4CCCC4)cc32)n1`: 96.6 nM. The figure for `OC(CNCc1ccccc1)c1cc(OCc2ccccc2)cc(OCc2ccccc2)c1` (centres undefined) is 1000 nM; for `COc1ccc(NC(=O)c2ccc(C=Cc3ccc(C(F)(F)F)cc3)cc2)cc1N1CCN(C)CC1` it is 421 nM; for `O=C(C=Cc1ccc(Cl)c(Cl)c1)NCCCCCN1CCC(CCNC(=O)/C=C/c2ccccc2)CC1` it is 783 nM. As for `CC(C)CCn1c(Sc2ccc([N+](=O)[O-])cc2C(F)(F)F)nnc1-c1ccccc1Cl`, the XC50 worked out at 919 nM. `CNC(=O)c1c(NC(=O)c2cccs2)sc2c1CCCC2` registered an XC50 of 818 nM. The figure for `OC1(c2ccc(Cl)c(C(F)(F)F)c2)CCN(CCOC2c3ccccc3CSc3ccc(Cl)cc32)CC1` (centres undefined) is 799 nM; for `CC(C)c1ccc(NC(S)=NN=Cc2ccccn2)cc1` it is 724 nM. Next, `COc1ccccc1C(=O)Nc1cccc(N2CCC(NCc3ccc(-n4cccn4)cc3)CC2)c1`: 1190 nM; `c1cc(CN2CCN(c3ccncc3)CC2)cc(-c2ccc(-c3nc4ccccc4[nH]3)cc2)c1`: 153 nM.

`COc1ccc2c(=NN=Cc3cccnc3)cc(C)[nH]c2c1`: the XC50 came to 993 nM. The figure for `Cc1cc(NC(=O)NCCN2CCC(NS(=O)(=O)c3ccc(C(F)(F)F)cc3)C2)c2ccccc2n1` (centres undefined) is 645 nM; for `COc1ccc(-c2nc(NC(=O)Cc3cccc(OC)c3)sc2C)cc1` it is 237 nM. For `O=C(Nc1cccc(-c2nn3ncccc3c2-c2ccnc(Nc3ccccc3)n2)c1)c1c(F)cccc1F`, the XC50 is 726 nM. As to `C(=N\Nc1nccc2sc(-c3cccnc3)cc12)/c1ccncc1`, the XC50 was 213 nM. Next, `O=C(Nc1ccc(OC2CCN(Cc3ccc(F)cc3)CC2)c(Cl)c1)c1ccoc1`: 1180 nM.

In turn, `CCCCNc1c(C(=O)OCC)c(C)nc2c1[nH]c1ccccc12` displayed an XC50 of 680 nM. Next, `Fc1ccc(Nc2ccnc3cc(-c4cccc(CNCCN5CCOCC5)c4)ccc23)c(Cl)c1`: 142 nM; `Oc1ccc(CCCNc2nc(NCc3cccc4ccccc34)nc(N3CCCNCC3)n2)cc1`: 987 nM.

Take `Cc1ccc(-c2noc(COc3ccccc3C(=O)NC3CCCC3)n2)cc1`: the XC50 is 882 nM. In the case of `N#Cc1ccc(N(CC(=O)NCCc2ccccc2)CC2CC2)c2ccccc12`, the XC50 turned out to be 734 nM. Next, `Cc1ccc(C(c2nnnn2C2CCCC2)N(Cc2ccco2)Cc2ccccc2Cl)cc1` (centres undefined): 959 nM. Next, `Cc1ccc(Sc2ccc(NC(=O)CN3CCN(C(=O)c4ccco4)CC3)cc2)cc1C`: 911 nM; `CCCc1ccccc1Nc1nc(C)cc(N(CC)CCCN2CCCCC2)n1`: 622 nM. With `Cc1nc(-c2nc(NCCc3c(C)noc3C)ncc2-c2ccsc2)sc1C`, the XC50 came to 256 nM. Next, `O=C(Nc1nc(-c2ccccn2)cs1)c1ccc(S(=O)(=O)N2CCc3ccccc32)cc1`: 830 nM; `O=C(NCCCCN1CCC2c3cccc(O)c3CCC21)c1ccc(-c2ccccc2)cc1` (centres undefined): 1380 nM. The figure for `O=S(=O)(NCCN1CCCC1)c1ccc(-c2cccc(CNCCc3cccs3)c2)cc1` is 928 nM.

The values above are taken from ChEMBL document CHEMBL1157539, “Thousands of chemical starting points for antimalarial lead identification” (Nature, 2010).
